Test results reported in patent publication US20210214303A1, “SCORPION VENOM BENZOQUINONE DERIVATIVES AND USES THEREOF” (priority 2018, published 2021).
≈ marks a conversion by molar mass, not a printed value. Entries after “also recorded” stand apart in the source; their conditions may differ.

Assays:
Staphylococcus aureus [1] = assay: broth microdilution assay (MIC); type: cell-based; conditions: S. aureus, read-out: minimum inhibitory concentration (MIC)
Protocol: FIG. 3D illustrates the determination of the minimal inhibitory concentrations (MICs) of the red and blue 1,4 benzoquinones against Staphylococcus aureus. The MICs determined by the broth microdilution assay are 4 μg/mL for the red 1,4 benzoquinone and 6 μg/mL for the blue 1,4 benzoquinone. Ampicillin was used as a positive control. Each result is reported as the mean±SD.
This difference was confirmed using a broth microdilution assay (FIG. 3D). The minimum inhibitory concentration (MIC) for S. aureus growth was 4 μg/mL for the red 1,4 benzoquinone and 6 μg/mL for the blue 1,4 benzoquinone (FIG. 3D, Table 1). Ampicillin (MIC=0.5 μg/mL) was used as a positive control (ESCMID Eo (2003) Clin. Microbiol. Infect. 9: ix-xv; Pieterse et al., (2010) Brazil. J. Microbiol. 41: 133-145). These compounds were bactericidal at their MICs, killing 90% of S. aureus in 6 h and 99.9% in 24 h (Table 2).

Staphylococcus aureus [2] = assay: Time-kill assay; type: cell-based; conditions: for killing of S. aureus: at their MICs
E. coli = assay: activity against gram negative E. coli; type: cell-based
Candida. albicans = assay: activity against pathogenic fungus; type: cell-based
[3] = system: Mycobacterium tuberculosis H37Rv; assay: microbe, parasite or virus in culture; type: cell-based; conditions: M. tuberculosis H37Rv, broth microdilution
[4] = system: A549 (adenocarcinomic lung epithelial cells); assay: cytotoxicity assay, LDH release; type: cell-based, human; conditions: 1, 5, and 25 μM, 12 hours
Protocol: (§1) Cytotoxicity to PBMCs and to Neoplastic Cells: The cytotoxicity of the 1,4 benzoquinones of the disclosure was tested with peripheral blood mononuclear cells (PBMCs) and various human neoplastic cell lines: A549 (adenocarcinomic lung epithelial cells), Jurkat (T cell leukemia), TE 671 (rhabdomyosarcoma cells) and SH-SY5Y (bone marrow neuroblastoma cells).
(§2) PBMCs were obtained from healthy blood donors and isolated by Ficoll-Paque PLUS density gradient centrifugation and resuspended in RPMI-1640 medium supplemented with 10% fetal calf serum. Cells were incubated at 37° C. in 5% CO2 overnight and non-adherent cells were recovered and used for subsequent experiments. The neoplastic cell lines were cultured according to the ATCC guidelines.
(§3) For cytotoxicity assays, cells were resuspended in DMEM without phenol red, supplemented with 2% heat-inactivated fetal calf serum. Cells were plated in 96-well polystyrene cell culture plates (2×10^4 to 2×10^5 cells/well depending on the cell type) and incubated at 37° C. in 5% CO2 for 8 hours to promote cell adhesion to the well's surface. The red and blue 1,4 benzoquinones were administered to achieve final concentrations of 1, 5, and 25 μM. Cells were then incubated at 37° C. in 5% CO2 for 12 hours. Following the incubation period, plates were centrifuged at 300×g for 10 minutes and supernatants were harvested to evaluate cell viability with the CytoTox 96@ Non-Radioactive Cytotoxicity Assay (Promega). This assay quantitatively measures lactate dehydrogenase (LDH), a stable cytosolic enzyme that is released upon cell lysis. The released LDH in the culture supernatants was measured with a colorimetric coupled enzymatic assay according to the manufacturer's instructions.

Jurkat (T cell leukemia) = assay: cytotoxicity assay, LDH release; type: cell-based, human; conditions: 1, 5, and 25 μM, 12 hours
Protocol: as §1, §2, §3

[5] = system: SH-SY5Y (bone marrow neuroblastoma cells); assay: cytotoxicity assay, LDH release; type: cell-based, human; conditions: 1, 5, and 25 μM, 12 hours
Protocol: as §1, §2, §3

[6] = system: TE 671 (rhabdomyosarcoma cells); assay: cytotoxicity assay, LDH release; type: cell-based, human; conditions: 1, 5, and 25 μM, 12 hours
Protocol: as §1, §2, §3

[7] = system: peripheral blood mononuclear cells (PBMCs); assay: cytotoxicity assay, LDH release; type: cell-based, human; conditions: 25 μM, 12 hours
Protocol: FIG. 14B illustrates a cytotoxic effect of the 1,4 benzoquinones of the disclosure on peripheral blood mononuclear cells (PBMCs). PBMCs were incubated with the red and blue 1,4 benzoquinones at a concentration of 25 μM for 12 hours, and cell death was evaluated by the release of the stable cytosolic enzyme lactate dehydrogenase. […] Each result is reported as the mean±SD.
as §1, §2, §3

TE671 muscle cells = assay: detection of intracellular reactive oxygen species with DCFH-DA; type: cell-based; conditions: 25 μM, 6 hours
Protocol: FIG. 16A illustrates the detection of intracellular reactive oxygen species (ROS) using the oxidant-sensing probe dichloro-dihydro-fluorescein diacetate (DCFH-DA). TE671 muscle cells were used. Cells were cultured according to the ATCC guidelines. Before treatment, cells were incubated for one hour with a 10 μM solution of DCFH-DA. After the cells were washed 3×PBS, either the red or blue 1,4 benzoquinone was administered at a concentration of 25 μM. Cells were then incubated at 37° C. in 5% CO2 for 6 hours. Following the incubation period, cells were harvested and evaluated with a Zeiss Axioskop fluorescence microscope using a 485-nm excitation and 530-nm emission filter combination. […] Treatment with hydrogen peroxide (50 μM) was used as positive control.

Jurkat cells = assay: Annexin V / viability dye flow cytometry apoptosis assay; type: cell-based; conditions: 25 μM; 0, 4, 8 and 12 h
Protocol: In this assay, Jurkat cells were incubated with either the red or blue 1,4 benzoquinone at a concentration of 25 μM for 0, 4, 8 and 12 h. Cells were then stained with the Fixable Viability Dye eFluor 780 and FITC Annexin V and analyzed using flow cytometry. Positive staining with Annexin V is a marker of early apoptosis, and positive staining with both Annexin V and the viability dye is a marker of late apoptosis/necrosis. Double negatives are live cells. Cells were grouped into three categories (live, early apoptotic, and late apoptotic/necrotic). Data from three independent experiments are shown as mean±SEM (standard error of mean).

COC1=CC(=O)C(SC)=C(SC)C1=O [blue 1,4 benzoquinone, 5-methoxy-2,3-bis(methylthio)cyclohexa-2,5-diene-1,4-dione]
MIC (Staphylococcus aureus [1]): 6 µg/mL (≈ 26.1 µM)
Colony-forming Units (CFU) (Staphylococcus aureus [2]; 0 hr incubation, 2 × MIC): 339 Colony-forming units per plate
Colony-forming Units (CFU) (Staphylococcus aureus [2]; 0 hr incubation, MIC): 352 Colony-forming units per plate
Colony-forming Units (CFU) (Staphylococcus aureus [2]; 6 hr incubation, 2 × MIC): 21 Colony-forming units per plate
Colony-forming Units (CFU) (Staphylococcus aureus [2]; 6 hr incubation, MIC): 45 Colony-forming units per plate
Colony-forming Units (CFU) (Staphylococcus aureus [2]; 12 hr incubation, 2 × MIC): 2 Colony-forming units per plate
Colony-forming Units (CFU) (Staphylococcus aureus [2]; 12 hr incubation, MIC): 1 Colony-forming units per plate
Colony-forming Units (CFU) (Staphylococcus aureus [2]; 24 hr incubation, 2 × MIC): 0 Colony-forming units per plate
Colony-forming Units (CFU) (Staphylococcus aureus [2]; 24 hr incubation, MIC): 2 Colony-forming units per plate
killing of S. aureus (Staphylococcus aureus [2]; in 6 h): 90%
killing of S. aureus (Staphylococcus aureus [2]; in 24 h): 99.9%
activity against gram negative E. coli (E. coli): neither compound was found to have appreciable activity; also recorded: Neither 1,4 benzoquinone showed activity
activity against the pathogenic fungus Candida. albicans (Candida. albicans): Neither 1,4 benzoquinone showed activity
MIC [3]: 4 µg/mL (≈ 17.4 µM)
cytotoxic effect on A549 cells (LDH release) [4]: remained relatively unaffected
cytotoxic effect on Jurkat cells (LDH release) (Jurkat (T cell leukemia)): comparably potent in inducing death
cytotoxic effect on SH-SY5Y cells (LDH release) [5]: comparably potent in inducing death
cytotoxic effect on TE 671 cells (LDH release) [6]: comparably potent in inducing death
PBMCs killed [7]: 50%
cytotoxic effect on PBMCs (LDH release) [7]: cytotoxic against PBMCs
intracellular reactive oxygen species (oxidation of DCFH-DA) (TE671 muscle cells): Intracellular oxidation of the DCFH-DA in cells treated with the 1,4 benzoquinones was observed
apoptosis (Annexin V staining, loss of cell membrane asymmetry) (Jurkat cells): triggers apoptosis

COC1=CC(=O)C(SC)=C(OC)C1=O [red 1,4 benzoquinone, 3,5-dimethoxy-2-(methylthio)cyclohexa-2,5-diene-1,4-dione]
MIC (Staphylococcus aureus [1]): 4 µg/mL (≈ 18.7 µM)
Colony-forming Units (CFU) (Staphylococcus aureus [2]; 0 hr incubation, 2 × MIC): 311 Colony-forming units per plate
Colony-forming Units (CFU) (Staphylococcus aureus [2]; 0 hr incubation, MIC): 298 Colony-forming units per plate
Colony-forming Units (CFU) (Staphylococcus aureus [2]; 6 hr incubation, 2 × MIC): 9 Colony-forming units per plate
Colony-forming Units (CFU) (Staphylococcus aureus [2]; 6 hr incubation, MIC): 22 Colony-forming units per plate
Colony-forming Units (CFU) (Staphylococcus aureus [2]; 12 hr incubation, 2 × MIC): 0 Colony-forming units per plate
Colony-forming Units (CFU) (Staphylococcus aureus [2]; 12 hr incubation, MIC): 3 Colony-forming units per plate
Colony-forming Units (CFU) (Staphylococcus aureus [2]; 24 hr incubation, 2 × MIC): 0 Colony-forming units per plate
Colony-forming Units (CFU) (Staphylococcus aureus [2]; 24 hr incubation, MIC): 0 Colony-forming units per plate
killing of S. aureus (Staphylococcus aureus [2]; in 6 h): 90%
killing of S. aureus (Staphylococcus aureus [2]; in 24 h): 99.9%
activity against gram negative E. coli (E. coli): neither compound was found to have appreciable activity; also recorded: Neither 1,4 benzoquinone showed activity
activity against the pathogenic fungus Candida. albicans (Candida. albicans): Neither 1,4 benzoquinone showed activity
MIC [3]: > 160 µg/mL
cytotoxic effect on A549 cells (LDH release) [4]: remained relatively unaffected
cytotoxic effect on Jurkat cells (LDH release) (Jurkat (T cell leukemia)): comparably potent in inducing death
cytotoxic effect on SH-SY5Y cells (LDH release) [5]: comparably potent in inducing death
cytotoxic effect on TE 671 cells (LDH release) [6]: comparably potent in inducing death
PBMCs killed [7]: 60%
cytotoxic effect on PBMCs (LDH release) [7]: cytotoxic against PBMCs
intracellular reactive oxygen species (oxidation of DCFH-DA) (TE671 muscle cells): Intracellular oxidation of the DCFH-DA in cells treated with the 1,4 benzoquinones was observed
apoptosis (Annexin V staining, loss of cell membrane asymmetry) (Jurkat cells): triggers apoptosis
